Measured values reported in patent US20240148821A1, “PHARMACEUTICAL USE OF CYCLIC PEPTIDE COMPOUND” (CHUGAI SEIYAKU KABUSHIKI KAISHA, priority 2021, published 2024).
Numbered stars: 1 amine (or outer) side, 2 acyl side, 3 side chain; on linkers, the order of the positions; unused ones are H or OH. Bridge positions count the residues as written; N and C are the ends. Square brackets hold non-standard residues; d marks the D form. Peptide text beside a SMILES is read from it. * marks the point of attachment. hPhe(3,5-F2-4-CF3) = N[C@@H](CCc1cc(F)c(C(F)(F)F)c(F)c1)C(=O)O; hPhe(3-Cl-4-CF3) = N[C@@H](CCc1ccc(C(F)(F)F)c(Cl)c1)C(=O)O; hPhe(3-F,4-CF3) = N[C@@H](CCc1ccc(C(F)(F)F)c(F)c1)C(=O)O; NMePhe(4-CF3) = CN[C@@H](Cc1ccc(C(F)(F)F)cc1)C(=O)O; hPhe(4-CF3) = N[C@@H](CCc1ccc(C(F)(F)F)cc1)C(=O)O; NMePhe(4-Cl) = CN[C@@H](Cc1ccc(Cl)cc1)C(=O)O; NMePhe(4-Me) = CN[C@@H](Cc1ccc(C)cc1)C(=O)O; NMedβ3hAla = C[C@H](CC(=O)[*:2])N(C)[*:1]; hPhe(4-F) = N[C@@H](CCc1ccc(F)cc1)C(=O)O; NMeGly(cPent) = CN[C@H](C(=O)O)C1CCCC1; Pro(4,4-F2) = O=C(O)[C@@H]1CC(F)(F)CN1; NMeCha = CN[C@@H](CC1CCCCC1)C(=O)O; NMeChg = CN[C@H](C(=O)O)C1CCCCC1; NMeF = CN[C@@H](Cc1ccccc1)C(=O)O; NMeI = CC[C@H](C)[C@H](NC)C(=O)O; X68 = COCCOCCN(CC(=O)[*:2])[*:1]; NMeD = CN[C@@H](CC(=O)O)C(=O)O; NMeL = CN[C@@H](CC(C)C)C(=O)O; NMeNle = CCCC[C@H](NC)C(=O)O; NMeV = CN[C@H](C(=O)O)C(C)C; d(β3hA) = C[C@@H](N)CC(=O)O; Morpholide = C1CN(*)CCO1; NMeA = CN[C@@H](C)C(=O)O; NMeAib = CNC(C)(C)C(=O)O; Piperidide = C1CCN(*)CC1; Pyrrolidide = C1CCN(*)C1; Thz = O=C(O)[C@@H]1CSCN1; Ac5c = NC1(C(=O)O)CCCC1; Aze = O=C(O)[C@@H]1CCN1; NEtG = CCNCC(=O)O; Sar = CNCC(=O)O

molecular target: protein-protein interaction between Kras and SOS1 (biotin-tagged human Kras loaded with GDP, His-tagged human SOS1) (Homo sapiens (Human), UniProt P01116, G12D); assay: Protein-protein interaction inhibition between Kras and SOS1 (KrasG12D-SOS PPI) using AlphaScreen; format: biochemical; conditions: not given;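 further: kras produced in E. coli, Ni-coupled donor beads and streptavidin acceptor beads, excitation 680 nm with emission detected at 520–620 nm via singlet oxygen transfer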

SMILES	IC50 [nM]
CC[C@H](C)[C@@H]1NC(=O)[C@H](CC(C)C)N(C)C(=O)C[C@@H](C(=O)N(C)C)N(C)C(=O)[C@H](C2CCCC2)N(C)C(=O)C2(CCCC2)NC(=O)[C@H](CC(=O)N2CCOCC2)N(C)C(=O)[C@H](CCc2ccc(C(F)(F)F)c(Cl)c2)NC(=O)CN(C)C(=O)[C@H](CC2CCCCC2)N(C)C(=O)[C@@H]2CCN2C(=O)[C@H](C)N(C)C1=O [Compound 2109] ([NMeL]I[NMeA][Aze][NMeCha][Sar][hPhe(3-Cl-4-CF3)][NMeD](Morpholide)[Ac5c][NMeGly(cPent)][NMeD]-NMe2; lactam N-11)	1.8

same assay, conditions: AlphaScreen; biotin-tagged human Kras loaded with GDP, His-tagged human SOS1; read-out: KRAS G12D-SOS PPI IC50

SMILES	IC50 [nM]
CC[C@H](C)[C@@H]1NC(=O)[C@H](CC(C)C)N(C)C(=O)C[C@@H](C(=O)N2CCCCC2)N(C)C(=O)[C@H](C2CCCCC2)N(C)C(=O)C2(CCCC2)NC(=O)[C@@H]2CSCN2C(=O)[C@H](CCc2ccc(C(F)(F)F)c(Cl)c2)NC(=O)CN(C)C(=O)[C@H](CC2CCCCC2)N(C)C(=O)CN(C)C(=O)CN(C)C1=O [Compound 1093] ([NMeL]I[Sar][Sar][NMeCha][Sar][hPhe(3-Cl-4-CF3)][Thz][Ac5c][NMeChg][NMeD]-Piperidide; lactam N-11)	0.73
CC[C@H](C)[C@@H]1NC(=O)[C@H](CC(C)C)N(C)C(=O)C[C@@H](C(=O)N2CCCC2)N(C)C(=O)[C@H]([C@@H](C)CC)N(C)C(=O)C2(CCCC2)NC(=O)[C@@H]2CCCN2C(=O)[C@H](CCc2ccc(C(F)(F)F)c(Cl)c2)NC(=O)CN(CC)C(=O)[C@H](Cc2ccc(C(F)(F)F)cc2)N(C)C(=O)[C@@H]2CCN2C(=O)[C@H](C)N(C)C1=O [Compound 1159] ([NMeL]I[NMeA][Aze][NMePhe(4-CF3)][NEtG][hPhe(3-Cl-4-CF3)]P[Ac5c][NMeI][NMeD]-Pyrrolidide; lactam N-11)	2.8
CC[C@H](C)[C@@H]1NC(=O)[C@H](CC(C)C)N(C)C(=O)C[C@@H](C)NC(=O)[C@H](C2CCCC2)N(C)C(=O)C2(CCCC2)NC(=O)[C@@H]2CCCN2C(=O)[C@H](CCc2ccc(C(F)(F)F)c(Cl)c2)NC(=O)CN(C)C(=O)[C@H](CC2CCCCC2)N(C)C(=O)[C@@H]2CCN2C(=O)[C@H](C)N(C)C1=O [Compound 1477] (cyclo([Ac5c][NMeGly(cPent)][d(β3hA)][NMeL]I[NMeA][Aze][NMeCha][Sar][hPhe(3-Cl-4-CF3)]P))	28
CC[C@H](C)[C@@H]1NC(=O)[C@H](CC(C)C)N(C)C(=O)C[C@@H](C)N(C)C(=O)[C@H](C2CCCCC2)N(C)C(=O)C2(CCCC2)NC(=O)[C@@H]2CC(F)(F)CN2C(=O)[C@H](CCc2cc(F)c(C(F)(F)F)c(F)c2)NC(=O)CN(C)C(=O)[C@H](Cc2ccc(C(F)(F)F)cc2)N(C)C(=O)[C@@H]2CCN2C(=O)[C@H](C)N(C)C1=O [Compound 606] (cyclo([Ac5c][NMeChg][NMedβ3hAla][NMeL]I[NMeA][Aze][NMePhe(4-CF3)][Sar][hPhe(3,5-F2-4-CF3)][Pro(4,4-F2)]))	8.3
CC[C@H](C)[C@@H]1NC(=O)[C@H](CC(C)C)N(C)C(=O)C[C@@H](C)N(C)C(=O)[C@H](CC(C)C)NC(=O)C(C)(C)N(C)C(=O)[C@H](CC(C)C)NC(=O)[C@H](CCc2ccc(C(F)(F)F)cc2)NC(=O)CN(C)C(=O)[C@H](Cc2ccc(Cl)cc2)N(C)C(=O)CN(C)C(=O)CN(C)C1=O [Compound 315] (cyclo(I[Sar][Sar][NMePhe(4-Cl)][Sar][hPhe(4-CF3)]L[NMeAib]L[NMedβ3hAla][NMeL]))	120
CC[C@H](C)[C@@H]1NC(=O)[C@H](CC2CCCCC2)N(C)C(=O)C[C@@H](C(=O)N2CCCCC2)N(C)C(=O)[C@H](C(C)C)N(C)C(=O)C2(CCCC2)NC(=O)[C@@H]2CCCN2C(=O)[C@H](CCc2ccc(C(F)(F)F)c(Cl)c2)NC(=O)CN(C)C(=O)[C@H](CC2CCCCC2)N(C)C(=O)[C@@H]2CCN2C(=O)[C@H](C)N(C)C1=O [Compound 572] ([NMeCha]I[NMeA][Aze][NMeCha][Sar][hPhe(3-Cl-4-CF3)]P[Ac5c][NMeV][NMeD]-Piperidide; lactam N-11)	39
CC[C@H](C)[C@@H]1NC(=O)[C@H](CC(C)C)N(C)C(=O)C[C@@H](C)NC(=O)[C@H](C(C)C)N(C)C(=O)C2(CCCC2)NC(=O)[C@@H]2CCCN2C(=O)[C@H](CCc2ccc(C(F)(F)F)c(Cl)c2)NC(=O)CN(C)C(=O)[C@H](CC2CCCCC2)N(C)C(=O)[C@@H]2CCN2C(=O)[C@H](Cc2ccccc2)N(C)C1=O [Compound 1628] (cyclo([Ac5c][NMeV][d(β3hA)][NMeL]I[NMeF][Aze][NMeCha][Sar][hPhe(3-Cl-4-CF3)]P))	67
CC[C@H](C)[C@@H]1NC(=O)[C@H](CC(C)C)N(C)C(=O)C[C@@H](C(=O)N2CCCCC2)N(C)C(=O)[C@H]([C@@H](C)CC)N(C)C(=O)C2(CCCC2)NC(=O)[C@@H]2CCCN2C(=O)[C@H](CCc2ccc(C(F)(F)F)c(Cl)c2)NC(=O)CN(C)C(=O)[C@H](Cc2ccc(C)cc2)N(C)C(=O)[C@@H]2CCN2C(=O)[C@H](C)N(C)C1=O [Compound 1727] ([NMeL]I[NMeA][Aze][NMePhe(4-Me)][Sar][hPhe(3-Cl-4-CF3)]P[Ac5c][NMeI][NMeD]-Piperidide; lactam N-11)	1.2
CC[C@H](C)[C@@H]1NC(=O)[C@H](CC(C)C)N(C)C(=O)C[C@@H](C(=O)N2CCCC2)N(C)C(=O)[C@H](C2CCCCC2)N(C)C(=O)C2(CCCC2)NC(=O)[C@@H]2CCCN2C(=O)[C@H](CCc2ccc(C(F)(F)F)c(Cl)c2)NC(=O)CN(C)C(=O)[C@H](Cc2ccc(C)cc2)N(C)C(=O)[C@@H]2CCN2C(=O)[C@H](C)N(C)C1=O [Compound 1852] ([NMeL]I[NMeA][Aze][NMePhe(4-Me)][Sar][hPhe(3-Cl-4-CF3)]P[Ac5c][NMeChg][NMeD]-Pyrrolidide; lactam N-11)	0.94
CC[C@H](C)[C@@H]1NC(=O)[C@H](C)N(C)C(=O)C[C@@H](C(=O)N2CCCCC2)N(C)C(=O)[C@H](C(C)C)N(C)C(=O)C2(CCCC2)NC(=O)[C@@H]2CCCN2C(=O)[C@H](CCc2ccc(F)cc2)NC(=O)CN(C)C(=O)[C@H](CC2CCCCC2)N(C)C(=O)[C@@H]2CCN2C(=O)[C@H](C)N(C)C1=O [Compound 860] ([NMeA]I[NMeA][Aze][NMeCha][Sar][hPhe(4-F)]P[Ac5c][NMeV][NMeD]-Piperidide; lactam N-11)	210
CC[C@H](C)[C@@H]1NC(=O)[C@H](CC(C)C)N(C)C(=O)C[C@@H](C)NC(=O)[C@H](C(C)C)N(C)C(=O)C2(CCCC2)NC(=O)[C@@H]2CCCN2C(=O)[C@H](CCc2ccc(C(F)(F)F)c(F)c2)NC(=O)CN(C)C(=O)[C@H](CC2CCCCC2)N(C)C(=O)[C@@H]2CCN2C(=O)[C@H](C)N(C)C1=O [Compound 952] (cyclo([Ac5c][NMeV][d(β3hA)][NMeL]I[NMeA][Aze][NMeCha][Sar][hPhe(3-F,4-CF3)]P))	120
CC[C@H](C)[C@@H]1NC(=O)[C@H](CC(C)C)N(C)C(=O)C[C@@H](C(=O)N2CCCC2)NC(=O)[C@H](C2CCCC2)N(C)C(=O)C2(CCCC2)NC(=O)[C@@H]2CCCN2C(=O)[C@H](CCc2ccc(C(F)(F)F)c(Cl)c2)NC(=O)CN(C)C(=O)[C@H](CC2CCCCC2)N(C)C(=O)[C@@H]2CCN2C(=O)[C@H](C)N(C)C1=O [Compound 700] ([NMeL]I[NMeA][Aze][NMeCha][Sar][hPhe(3-Cl-4-CF3)]P[Ac5c][NMeGly(cPent)]D-Pyrrolidide; lactam N-11)	5
CC[C@H](C)[C@@H]1NC(=O)[C@H](CC(C)C)N(C)C(=O)C[C@@H](C(=O)N(C)C)N(C)C(=O)[C@H](C2CCCCC2)N(C)C(=O)C2(CCCC2)NC(=O)[C@@H]2CCCN2C(=O)[C@H](CCc2ccc(C(F)(F)F)c(Cl)c2)NC(=O)CN(C)C(=O)[C@H](Cc2ccc(C)cc2)N(C)C(=O)[C@@H]2CCN2C(=O)[C@H](C)N(C)C1=O [Compound 1685] ([NMeL]I[NMeA][Aze][NMePhe(4-Me)][Sar][hPhe(3-Cl-4-CF3)]P[Ac5c][NMeChg][NMeD]-NMe2; lactam N-11)	0.6
CC[C@H](C)[C@@H]1NC(=O)[C@H](CC(C)C)N(C)C(=O)C[C@@H](C(=O)N2CCCCC2)N(C)C(=O)[C@H](C2CCCCC2)N(C)C(=O)C2(CCCC2)NC(=O)CN(CCOCCOC)C(=O)[C@H](CCc2ccc(C(F)(F)F)c(Cl)c2)NC(=O)CN(C)C(=O)[C@H](CC2CCCCC2)N(C)C(=O)CN(C)C(=O)CN(C)C1=O [Compound 2025] ([NMeL]I[Sar][Sar][NMeCha][Sar][hPhe(3-Cl-4-CF3)][X68][Ac5c][NMeChg][NMeD]-Piperidide; lactam N-11 (inferred); C-terminus assumed)	1.4
CC[C@H](C)[C@@H]1NC(=O)[C@H](C2CCCCC2)N(C)C(=O)C[C@@H](C(=O)N2CCCCC2)N(C)C(=O)[C@H](C(C)C)N(C)C(=O)C2(CCCC2)NC(=O)[C@@H]2CCCN2C(=O)[C@H](CCc2ccc(C(F)(F)F)c(Cl)c2)NC(=O)CN(C)C(=O)[C@H](CC2CCCCC2)N(C)C(=O)[C@@H]2CCN2C(=O)[C@H](C)N(C)C1=O [Compound 58] ([NMeChg]I[NMeA][Aze][NMeCha][Sar][hPhe(3-Cl-4-CF3)]P[Ac5c][NMeV][NMeD]-Piperidide; lactam N-11)	28
CCCC[C@H]1C(=O)N[C@@H]([C@@H](C)CC)C(=O)N(C)[C@@H](C)C(=O)N2CC[C@H]2C(=O)N(C)[C@@H](CC2CCCCC2)C(=O)N(C)CC(=O)N[C@@H](CCc2ccc(C(F)(F)F)c(Cl)c2)C(=O)N2CCC[C@H]2C(=O)NC2(CCCC2)C(=O)N(C)[C@@H](C(C)C)C(=O)N[C@H](C)CC(=O)N1C [Compound 1568] (cyclo([Ac5c][NMeV][d(β3hA)][NMeNle]I[NMeA][Aze][NMeCha][Sar][hPhe(3-Cl-4-CF3)]P))	94
CC[C@H](C)[C@@H]1NC(=O)[C@H](C)N(C)C(=O)C[C@@H](C)NC(=O)[C@H](C2CCCC2)N(C)C(=O)C2(CCCC2)NC(=O)[C@@H]2CCCN2C(=O)[C@H](CCc2ccc(C(F)(F)F)c(Cl)c2)NC(=O)CN(C)C(=O)[C@H](Cc2ccc(C(F)(F)F)cc2)N(C)C(=O)[C@@H]2CCN2C(=O)[C@H](C)N(C)C1=O [Compound 1512] (cyclo([Ac5c][NMeGly(cPent)][d(β3hA)][NMeA]I[NMeA][Aze][NMePhe(4-CF3)][Sar][hPhe(3-Cl-4-CF3)]P))	1.2
